Test results taken from ChEMBL document CHEMBL1126669, “A remarkable change of opioid receptor selectivity on the attachment of a peptidomimetic kappa address element to the delta antagonist, natrindole: 5'-[N2-alkylamidino)methyl]naltrindole derivatives as a novel class of kappa opioid receptor antagonists” (J Med Chem, 1993).

Columns and labels:
[1] = molecular target: Delta-type opioid receptor (Mus musculus) (UniProt P32300); assay: Ratio of IC50 of [D-Ala2,D-Leu5]enkephalin (DADLE) in the presence (100 nM) to that of [(DADLE) alone, against delta opioid receptor in mouse vas deferens preparation
Chain of Delta-type opioid receptor (Mus musculus) (P32300 whole entry): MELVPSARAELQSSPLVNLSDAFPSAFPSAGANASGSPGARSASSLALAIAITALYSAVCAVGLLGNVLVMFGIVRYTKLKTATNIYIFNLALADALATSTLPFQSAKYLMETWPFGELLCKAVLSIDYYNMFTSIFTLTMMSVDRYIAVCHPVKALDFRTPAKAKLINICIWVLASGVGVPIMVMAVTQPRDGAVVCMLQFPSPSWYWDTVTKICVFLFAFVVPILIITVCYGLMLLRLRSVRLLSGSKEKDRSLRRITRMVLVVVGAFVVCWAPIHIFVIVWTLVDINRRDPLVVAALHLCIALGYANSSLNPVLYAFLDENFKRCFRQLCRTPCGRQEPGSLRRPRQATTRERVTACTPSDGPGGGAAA

[2] = molecular target: Opioid receptors; mu & kappa (Homo sapiens) (UniProt P41145+P35372); assay: Selectivity ratio is IC50 value of kappa-opioid receptor to that of mu-opioid receptor; assay type: protein assay
Chain of Opioid receptors; mu & kappa (Homo sapiens) (P35372 whole entry, looked up): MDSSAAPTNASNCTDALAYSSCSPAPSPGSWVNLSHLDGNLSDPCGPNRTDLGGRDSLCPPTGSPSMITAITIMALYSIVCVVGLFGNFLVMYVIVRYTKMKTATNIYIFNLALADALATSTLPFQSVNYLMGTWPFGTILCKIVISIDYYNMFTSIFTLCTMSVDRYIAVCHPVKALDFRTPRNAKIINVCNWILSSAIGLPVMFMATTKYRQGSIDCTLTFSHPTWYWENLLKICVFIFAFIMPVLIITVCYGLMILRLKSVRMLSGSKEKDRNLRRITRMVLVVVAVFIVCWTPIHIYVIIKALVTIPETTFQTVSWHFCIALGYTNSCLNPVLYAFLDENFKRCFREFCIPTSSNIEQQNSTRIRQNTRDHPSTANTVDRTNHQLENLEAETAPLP
Chain of Opioid receptors; mu & kappa (Homo sapiens) (P41145 whole entry, looked up): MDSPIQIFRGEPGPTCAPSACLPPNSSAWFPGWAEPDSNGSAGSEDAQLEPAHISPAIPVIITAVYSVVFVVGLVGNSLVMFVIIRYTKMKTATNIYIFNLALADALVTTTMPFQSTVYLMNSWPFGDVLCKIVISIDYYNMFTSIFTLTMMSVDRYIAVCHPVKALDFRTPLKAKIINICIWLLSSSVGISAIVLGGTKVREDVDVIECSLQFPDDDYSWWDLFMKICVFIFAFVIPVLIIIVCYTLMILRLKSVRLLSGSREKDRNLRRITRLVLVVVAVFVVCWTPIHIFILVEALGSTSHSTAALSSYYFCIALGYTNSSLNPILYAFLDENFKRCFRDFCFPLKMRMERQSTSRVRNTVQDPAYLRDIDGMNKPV

[3] = molecular target: Kappa-type opioid receptor (Cavia porcellus) (UniProt P41144); assay: Ratio of IC50 of ethylketazocine (EK) in the presence (100 nM) to that of ethylketazocine (EK) alone, against kappa opioid receptor in Guinea pig ileum preparation; assay type: tissue-based
Chain of Kappa-type opioid receptor (Cavia porcellus) (P41144 whole entry): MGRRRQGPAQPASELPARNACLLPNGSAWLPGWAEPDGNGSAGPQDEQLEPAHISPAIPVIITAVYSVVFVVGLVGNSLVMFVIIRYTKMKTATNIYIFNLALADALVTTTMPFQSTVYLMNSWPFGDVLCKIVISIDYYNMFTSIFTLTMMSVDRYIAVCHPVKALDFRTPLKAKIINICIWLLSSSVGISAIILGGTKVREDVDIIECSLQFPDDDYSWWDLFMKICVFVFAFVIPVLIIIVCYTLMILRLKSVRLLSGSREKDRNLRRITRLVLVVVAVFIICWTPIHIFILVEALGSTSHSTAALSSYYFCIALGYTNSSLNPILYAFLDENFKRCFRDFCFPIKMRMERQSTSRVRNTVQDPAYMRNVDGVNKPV

[4] = molecular target: Opioid receptors; delta & kappa (Homo sapiens) (UniProt P41145+P41143); assay: Selectivity ratio is IC50 value of kappa-opioid receptor to that of delta-opioid receptor; assay type: protein assay
Chain of Opioid receptors; delta & kappa (Homo sapiens) (P41143 whole entry, looked up): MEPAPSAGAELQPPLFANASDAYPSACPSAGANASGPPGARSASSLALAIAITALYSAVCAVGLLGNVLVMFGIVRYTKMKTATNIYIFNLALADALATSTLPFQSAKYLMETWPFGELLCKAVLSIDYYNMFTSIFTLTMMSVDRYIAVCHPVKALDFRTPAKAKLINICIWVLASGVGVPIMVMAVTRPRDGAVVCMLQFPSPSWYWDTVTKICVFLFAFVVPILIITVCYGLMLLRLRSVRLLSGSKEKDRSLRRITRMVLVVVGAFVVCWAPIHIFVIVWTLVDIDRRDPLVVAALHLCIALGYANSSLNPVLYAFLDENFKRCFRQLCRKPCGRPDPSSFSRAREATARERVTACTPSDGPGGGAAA
Chain of Opioid receptors; delta & kappa (Homo sapiens) (P41145 whole entry, looked up): as the sequence (P41145 whole entry, looked up) above

[5] = molecular target: Mu-type opioid receptor (Cavia porcellus) (UniProt P97266); assay: Ratio of IC50 of morphine (M) in the presence (100 nM) to that of morphine (M) alone, against mu opioid receptor in Guinea pig ileum preparation.; assay type: tissue-based
Chain of Mu-type opioid receptor (Cavia porcellus) (P97266 whole entry): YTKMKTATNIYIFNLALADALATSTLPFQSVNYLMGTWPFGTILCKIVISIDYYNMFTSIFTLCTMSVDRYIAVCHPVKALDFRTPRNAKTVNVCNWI

[6] = molecular target: Kappa-type opioid receptor (Cavia porcellus, UniProt P41144); assay: Binding affinity for k opioid receptor was determined using [3H]U-69593 radioligand in Guinea pig brain membranes; assay type: cell membranes, Membrane
Chain of Kappa-type opioid receptor (P41144 whole entry): as the sequence (P41144 whole entry) above

[7] = molecular target: Mu-type opioid receptor (Cavia porcellus, UniProt P97266); assay: Binding affinity for mu opioid receptor was determined using radioligand [3H][D-Ala2,MePhe4,Gly-ol6]enkephalin (DAMGO) in Guinea pig brain membranes.; assay type: cell membranes
Chain of Mu-type opioid receptor (P97266 whole entry): as the sequence (P97266 whole entry) above

| Compound | IC50 ratio [1] | Selectivity ratio [2] | IC50 ratio [3] | Selectivity ratio [4] | IC50 ratio [5] | Ki [6] | Ki [7] |
| --- | --- | --- | --- | --- | --- | --- | --- |
| CCCC(=N)NCc1ccc2[nH]c3c(c2c1)C[C@@]1(O)[C@H]2Cc4ccc(O)c5c4[C@@]1(CCN2CC1CC1)C3O5 (stereo partly specified) | 3 | 10 | 185 | 62 | 19.3 | – | – |
| Oc1ccc2c3c1O[C@H]1c4[nH]c5ccccc5c4C[C@@]4(O)[C@@H](C2)N(CC2CC2)CC[C@]314 | 459 | – | 1.3 | – | 11.2 | – | – |
| CCC(=N)NCc1ccc2[nH]c3c(c2c1)C[C@@]1(O)[C@H]2Cc4ccc(O)c5c4[C@@]1(CCN2CC1CC1)C3O5 (stereo partly specified) | 2.28 | 14 | 159 | 69 | 11.3 | – | – |
| Oc1ccc2c3c1O[C@H]1c4[nH]c5c(c4C[C@@]4(O)[C@@H](C2)N(CC2CC2)CC[C@]314)C[C@@]1(O)[C@H]2Cc3ccc(O)c4c3[C@@]1(CCN2CC1CC1)[C@H]5O4 [NORBINALTORPHIMINE] | – | – | – | – | – | 0.28 nM | – |
| CCCCC(=N)NCc1ccc2[nH]c3c(c2c1)C[C@@]1(O)[C@H]2Cc4ccc(O)c5c4[C@@]1(CCN2CC1CC1)C3O5 (stereo partly specified) | 4.71 | 28 | 439 | 93 | 15.7 | 0.061 nM | 3.5 nM |
